{"source": "patent US20060057639A1", "about": "“CaMKII/calcium channel phosphorylation-related compositions and methods” (priority 2004, published 2006)", "key": {"[1]": {"target": "cloned L-type channels (subunit α1C77) (Homo sapiens, UniProt Q13936)", "sequence (Q13936 1-2138 isoform Q13936-20)": "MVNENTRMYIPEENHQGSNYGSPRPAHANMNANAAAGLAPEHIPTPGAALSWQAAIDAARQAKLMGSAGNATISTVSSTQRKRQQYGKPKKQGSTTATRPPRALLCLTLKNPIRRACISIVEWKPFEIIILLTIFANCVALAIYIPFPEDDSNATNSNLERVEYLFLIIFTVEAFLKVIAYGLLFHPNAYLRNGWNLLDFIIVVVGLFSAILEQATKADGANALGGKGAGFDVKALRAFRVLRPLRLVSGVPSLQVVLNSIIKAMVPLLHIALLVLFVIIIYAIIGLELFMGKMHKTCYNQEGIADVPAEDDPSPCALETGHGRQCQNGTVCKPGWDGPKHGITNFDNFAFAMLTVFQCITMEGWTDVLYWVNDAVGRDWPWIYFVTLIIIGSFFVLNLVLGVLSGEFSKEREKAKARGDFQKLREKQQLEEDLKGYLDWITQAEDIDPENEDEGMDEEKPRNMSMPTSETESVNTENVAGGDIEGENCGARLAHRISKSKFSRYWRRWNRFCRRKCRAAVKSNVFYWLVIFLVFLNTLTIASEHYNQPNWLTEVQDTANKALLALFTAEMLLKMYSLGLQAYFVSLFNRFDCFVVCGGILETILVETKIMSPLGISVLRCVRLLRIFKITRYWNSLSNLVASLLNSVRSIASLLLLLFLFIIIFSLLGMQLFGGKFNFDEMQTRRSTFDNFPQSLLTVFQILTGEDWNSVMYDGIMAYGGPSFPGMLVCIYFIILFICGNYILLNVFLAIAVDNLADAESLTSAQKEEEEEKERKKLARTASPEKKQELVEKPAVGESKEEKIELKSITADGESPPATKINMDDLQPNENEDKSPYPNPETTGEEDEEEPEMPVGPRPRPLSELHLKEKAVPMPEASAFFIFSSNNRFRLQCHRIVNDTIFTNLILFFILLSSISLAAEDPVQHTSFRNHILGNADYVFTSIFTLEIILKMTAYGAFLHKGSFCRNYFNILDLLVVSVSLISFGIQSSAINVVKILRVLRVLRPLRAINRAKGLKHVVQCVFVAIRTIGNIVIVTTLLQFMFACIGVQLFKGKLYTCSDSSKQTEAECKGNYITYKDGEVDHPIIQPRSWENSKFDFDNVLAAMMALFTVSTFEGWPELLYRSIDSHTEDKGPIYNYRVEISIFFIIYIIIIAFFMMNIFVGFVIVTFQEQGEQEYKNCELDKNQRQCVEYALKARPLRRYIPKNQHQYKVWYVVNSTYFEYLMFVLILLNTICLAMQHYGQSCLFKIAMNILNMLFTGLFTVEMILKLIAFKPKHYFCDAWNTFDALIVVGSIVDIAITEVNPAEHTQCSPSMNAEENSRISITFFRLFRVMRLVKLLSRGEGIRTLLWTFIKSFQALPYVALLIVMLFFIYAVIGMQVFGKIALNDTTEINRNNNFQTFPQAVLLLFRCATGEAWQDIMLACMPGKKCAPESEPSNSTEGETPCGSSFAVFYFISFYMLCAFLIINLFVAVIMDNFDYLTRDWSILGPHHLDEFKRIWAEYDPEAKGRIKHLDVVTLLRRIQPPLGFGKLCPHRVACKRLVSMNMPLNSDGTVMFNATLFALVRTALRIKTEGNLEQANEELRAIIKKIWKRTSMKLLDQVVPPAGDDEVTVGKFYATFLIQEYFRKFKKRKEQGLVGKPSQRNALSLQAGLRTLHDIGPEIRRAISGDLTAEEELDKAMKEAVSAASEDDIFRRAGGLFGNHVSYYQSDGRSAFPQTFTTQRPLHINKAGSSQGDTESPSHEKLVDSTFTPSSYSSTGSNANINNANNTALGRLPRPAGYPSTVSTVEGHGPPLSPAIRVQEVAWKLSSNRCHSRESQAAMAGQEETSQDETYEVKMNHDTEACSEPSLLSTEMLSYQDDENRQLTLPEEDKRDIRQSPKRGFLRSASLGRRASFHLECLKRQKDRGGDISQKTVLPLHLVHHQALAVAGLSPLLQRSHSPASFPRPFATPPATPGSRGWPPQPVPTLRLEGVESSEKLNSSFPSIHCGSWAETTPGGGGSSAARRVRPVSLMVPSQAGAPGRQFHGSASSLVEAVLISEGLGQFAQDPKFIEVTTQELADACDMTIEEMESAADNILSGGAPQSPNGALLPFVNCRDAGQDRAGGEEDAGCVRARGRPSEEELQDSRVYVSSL", "sequence (P54289 25-956 partner limits assumed)": "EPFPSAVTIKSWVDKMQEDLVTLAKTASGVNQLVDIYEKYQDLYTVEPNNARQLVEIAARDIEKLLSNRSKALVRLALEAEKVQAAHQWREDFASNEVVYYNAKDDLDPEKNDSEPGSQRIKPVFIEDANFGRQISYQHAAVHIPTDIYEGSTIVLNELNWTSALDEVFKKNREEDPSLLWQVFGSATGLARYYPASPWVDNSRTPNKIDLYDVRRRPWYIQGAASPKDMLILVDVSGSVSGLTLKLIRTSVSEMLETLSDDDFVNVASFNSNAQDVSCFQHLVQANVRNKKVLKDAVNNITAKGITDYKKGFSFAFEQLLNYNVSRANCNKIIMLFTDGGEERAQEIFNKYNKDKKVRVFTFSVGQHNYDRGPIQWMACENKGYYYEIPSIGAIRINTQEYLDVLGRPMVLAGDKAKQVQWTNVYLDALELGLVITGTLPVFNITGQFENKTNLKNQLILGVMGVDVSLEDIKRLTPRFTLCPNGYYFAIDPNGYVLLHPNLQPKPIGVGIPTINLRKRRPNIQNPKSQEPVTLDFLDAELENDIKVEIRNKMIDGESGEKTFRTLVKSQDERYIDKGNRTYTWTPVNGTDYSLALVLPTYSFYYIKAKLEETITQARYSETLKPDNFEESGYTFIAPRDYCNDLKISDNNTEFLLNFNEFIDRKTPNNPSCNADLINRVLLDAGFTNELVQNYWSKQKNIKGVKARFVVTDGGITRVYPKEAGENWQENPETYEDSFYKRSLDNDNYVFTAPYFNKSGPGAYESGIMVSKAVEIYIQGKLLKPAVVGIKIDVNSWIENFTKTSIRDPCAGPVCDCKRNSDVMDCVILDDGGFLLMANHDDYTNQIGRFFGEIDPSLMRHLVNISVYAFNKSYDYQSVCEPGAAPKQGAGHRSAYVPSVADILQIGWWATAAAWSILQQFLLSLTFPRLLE", "sequence (P54289 957-1103 partner limits assumed)": "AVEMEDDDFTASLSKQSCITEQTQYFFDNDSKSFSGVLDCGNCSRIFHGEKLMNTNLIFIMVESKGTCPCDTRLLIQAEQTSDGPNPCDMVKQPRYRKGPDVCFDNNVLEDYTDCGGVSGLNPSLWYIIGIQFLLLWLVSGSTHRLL", "sequence (Q02641 whole entry partner)": "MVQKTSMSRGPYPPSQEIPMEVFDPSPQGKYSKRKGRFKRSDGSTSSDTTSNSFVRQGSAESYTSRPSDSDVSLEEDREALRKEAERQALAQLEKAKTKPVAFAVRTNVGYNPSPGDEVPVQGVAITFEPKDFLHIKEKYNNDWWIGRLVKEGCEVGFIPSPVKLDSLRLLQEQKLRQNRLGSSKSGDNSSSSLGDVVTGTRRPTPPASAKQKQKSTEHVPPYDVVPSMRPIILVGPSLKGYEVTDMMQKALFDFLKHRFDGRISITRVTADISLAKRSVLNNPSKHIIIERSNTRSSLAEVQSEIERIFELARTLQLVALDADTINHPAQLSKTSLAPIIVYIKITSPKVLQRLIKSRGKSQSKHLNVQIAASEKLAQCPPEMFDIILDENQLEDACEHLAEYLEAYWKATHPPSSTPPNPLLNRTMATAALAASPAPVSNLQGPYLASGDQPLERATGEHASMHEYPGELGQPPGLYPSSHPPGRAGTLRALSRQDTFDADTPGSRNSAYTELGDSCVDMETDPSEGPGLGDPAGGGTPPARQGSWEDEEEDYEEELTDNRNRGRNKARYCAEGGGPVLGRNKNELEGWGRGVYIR", "assay": "Check for use-dependence of diltiazem block of calcium currents supported by cloned L-type channels", "assay_type": "cell-based", "conditions": "same solutions and voltage protocol as in granule cells; diltiazem 100 μM", "experimental": "Dissociated cerebellar granule cells were prepared from 7-day old C57/BL6 mouse cerebella and grown in culture by a published protocol (Piedras-Renteria and Tsien, 1998; Randall and Tsien, 1995). The cerebellar granule cells were maintained in Minimal Essential Medium (Invitrogen) supplemented with 10% fetal bovine serum, glucose 5 mg/liter, transferrin 100 mg/liter, insulin 25 mg/liter, glutamine 300 mg/liter, and potassium chloride 20 mM. Cells were plated on Matrigel (Collaborative Biomedical Product) treated glass coverslips in 24-well chambers and maintained in a humidified, 37° C. incubator with […]/5% CO2. Cells were maintained for 6 to 9 days in culture prior to electrophysiological experiments. HEK293 cells stably transfected with the α2-δ and β1C subunits (HEKα2β1) were grown in Dulbecco's Modified Eagle's Medium containing 10% v/v calf serum, penicillin (100 units/ml), streptomycin (100 μg/ml), and kept under positive selection with Geneticin (400 μg/ml) while being maintained as described above. cDNAs encoding the α1C77 subunit (Zühlke and Reuter, 1998) and the green fluorescent protein were transiently transfected into HEKα2β1 cells by using the Lipofectamine2000 reagent (Invitrogen). Electrophysiological experiments were performed >24 hrs after transfection."}, "[2]": {"target": "T1, interaction of autophosphorylated CaMKII with α1C amino acids 1581-1690 (Rattus norvegicus, UniProt P11275)", "T1 construct": "made in house; host or cells: GST fusion from bacteria", "assay": "GST pull down of autophosphorylated α-CaMKII with α1C 1581-1690 fusion protein, peptide interference", "assay_type": "binding", "conditions": "40 μM peptide; 20 nM autophosphorylated α-CaMKII", "experimental": "(B) Immunoblot with CBα2 after GST pull down of purified autophosphorylated α-CaMKII (20 nM), using α1C amino acids 1581-1690 fused to GST. Pull down assay performed in the presence of 40 μM of the indicated peptide or the peptide diluent DMSO. (C) Immunoblots with CBα2 or an anti-CaM antibody after a GST pull down assay, using α1C amino acids 1581-1690 (WT), a ^1644TVGKFY^1649→EEDAAA mutant (Mut6), or GST alone, of purified autophosphorylated CaMKII (left) or CaM (right). Top panels show a Ponceau stain of each fusion protein. […] Asterisk indicates p<0.001 for a one-way analysis of variance followed by a Dunnett's test to identify specific pair-wise differences between the means for Mut6 vs. wt and GST vs. wt, n=4-8. […] Top panels show a Ponceau stain of each fusion protein.\nPeptides spanning α1C residues 1581-1690 have previously been described (Pitt et al., 2001). The NMDA-L peptide (Bayer et al., 2001), peptides AC-2 (Hanson et al., 1989), AC-3i (Braun and Schulman, 1995), and AC-3c (Braun and Schulman, 1995) have been described elsewhere.\nThe binding reactions were accomplished in Tris binding buffer (50 mM Tris, 150 mM NaCl, 0.1% T-20 at pH 7.4 ml plus 0.1% BSA) containing 20 nM purified CaMKII. The total protein from the HEK293 cell lysates added to each binding reaction ranged from 9-22 μg, determined by normalizing for the amount of CaMKII activity (Singla et al., 2001). Pre-autophosphorylayion of CaMKII (purified and lysate) was accomplished at 4° C. for 5 min in Tris binding buffer plus 1 mM CaCl2, 5 μM CaM, 1 mM ATP, and 5 mM MgCl2 to restrict the sites of autophosphorylation to primarily Thr286 (Ikeda et al., 1991; Lai et al., 1987; Lou and Schulman, 1989). Final concentration of these components in the binding reaction (1:40) was 0.025 mM CaCl2, 0.125 μM CaM, 0.025 mM ATP, and 0.125 mM MgCl2. The binding reaction was rocked for 1 h at 4° C. and the beads extensively washed in Tris binding buffer (2-3× for 5 mins each). […] CaMKII binding was quantified using densiotometric measurement of band intensity using KODAK 1D Image Analysis Software (Eastman Kodak, Company). […]"}, "[3]": {"tested_on": "L-type Ca^2+ currents in cerebellar granule cells", "assay": "Patch-clamp recording of Ca2+-dependent facilitation of L-type currents in cultured cerebellar granule cells", "assay_type": "cell-based, mouse", "conditions": "2 μM peptide in patch pipette; Ca^2+ as charge carrier; train of five pulses; without peptide facilitation averaged ~50%", "experimental": "Dissociated cerebellar granule cells were prepared from 7-day old C57/BL6 mouse cerebella and grown in culture by a published protocol (Piedras-Renteria and Tsien, 1998; Randall and Tsien, 1995). The cerebellar granule cells were maintained in Minimal Essential Medium (Invitrogen) supplemented with 10% fetal bovine serum, glucose 5 mg/liter, transferrin 100 mg/liter, insulin 25 mg/liter, glutamine 300 mg/liter, and potassium chloride 20 mM. Cells were plated on Matrigel (Collaborative Biomedical Product) treated glass coverslips in 24-well chambers and maintained in a humidified, 37° C. incubator with […]/5% CO2. Cells were maintained for 6 to 9 days in culture prior to electrophysiological experiments. […]\nCerebellar granule cells, identified on the basis of morphology and size, comprised >90% of the cells in the primary culture. […] Voltage-gated Ca^2+ and Ba^2+ currents were recorded from cells depolarized to 0 mV with five 20 ms pulses (50 ms interpulse interval) from a −90 mV holding potential. […]"}, "[4]": {"tested_on": "CaMKII", "sequence (P11275 whole entry, the tested form may be a part)": "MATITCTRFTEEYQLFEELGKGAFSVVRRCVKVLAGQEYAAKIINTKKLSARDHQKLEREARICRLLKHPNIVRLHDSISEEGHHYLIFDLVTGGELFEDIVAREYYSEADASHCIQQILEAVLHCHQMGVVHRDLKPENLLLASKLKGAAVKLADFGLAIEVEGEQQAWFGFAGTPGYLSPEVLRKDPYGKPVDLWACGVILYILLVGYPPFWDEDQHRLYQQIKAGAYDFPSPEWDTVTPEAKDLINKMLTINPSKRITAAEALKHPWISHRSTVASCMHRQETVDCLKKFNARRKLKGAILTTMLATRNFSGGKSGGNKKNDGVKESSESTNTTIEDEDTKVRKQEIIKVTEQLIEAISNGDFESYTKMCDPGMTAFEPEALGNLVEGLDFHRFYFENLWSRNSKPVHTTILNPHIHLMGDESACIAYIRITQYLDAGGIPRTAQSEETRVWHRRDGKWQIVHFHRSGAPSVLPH", "assay": "CaMKII dephosphorylation using PP1, autonomous activity measurement", "assay_type": "biochemical", "conditions": "n=4", "experimental": "Immunoblots with CBα2 or a phospho-specific CaMKII monoclonal antibody after GST pull down assays, using α1C amino acids 1509-1950 and 20 nM autophosphorylated α-CaMKII. (A) 5 mM EGTA was present in the binding reaction and/or in the wash; in (B), purified recombinant PP1 was added before (PP1-Pre) or after (PP1-Post) the binding reaction in the presence or absence of 5 mM EGTA, as indicated. (C) Time course of reversal of CaMKII autonomous activity following PP1 treatment in solution (n=4). (D) Activity measurements, using peptide AC-2 as a substrate, of CaMKII recovered in GST pull down assays, using α1C amino acids 1509-1950. Ca^2+/CaM-dependent and autonomous activity measurements of CaMKII recovered after treatment with recombinant PP1 for 30 min (PP1) or no treatment (−) in the binding assay (n=4). (E) Proposed mechanism of CaMKII binding to α1C to form a local and dedicated Ca^2+ spike integrator for CDF. […] Ca ^2+/CaM activation and Thr 286 autophosphorylation displace the CaMKII autoregulatory domain within the catalytic lobe to activate the subunit (yellow) and to expose an α1C tethering site. […] CaMKII may remain tethered to other cytoplasmic domains of α1C, as well. […]"}}}
{"compound": "COc1ccc([C@@H]2Sc3ccccc3N(CCN(C)C)C(=O)[C@@H]2OC(C)=O)cc1", "note": "[diltiazem]", "values": [{"measurement": "use-dependence of diltiazem block of calcium currents", "setting": "[1]", "result": "none were found"}]}
{"compound": "1639-1660: ~22 aa peptide generated from α1C residues 1639-1660 (Pitt et al., 2001) (KIWKRTSMKLLDQVVPPAGDDE; UniProt Q13936 1639-1660, looked up, fragment)", "values": [{"measurement": "interaction of the kinase with the 1581-1690 fusion protein in presence of peptide", "setting": "[2]", "result": "dramatically reduced"}]}
{"compound": "1589-1610: ~22 aa peptide of α1C residues 1589-1610, site important for tethering of apoCaM (KRLVSMNMPLNSDGTVMFNATL; UniProt Q13936 1589-1610, looked up, fragment)", "values": [{"measurement": "interaction of the kinase with the 1581-1690 fusion protein in presence of peptide", "setting": "[2]", "result": "not inhibited"}]}
{"compound": "autocamtide-2-related inhibitory peptide (KKALRRQEAVDAL)", "values": [{"measurement": "decrease in peak L-type current over the course of the depolarizing pulse train", "setting": "[3]", "result": "~25", "unit": "%"}]}
{"compound": "1615-1636: ~22 aa peptide of α1C residues 1615-1636, site important for tethering of apoCaM (RTALRIKTEGNLEQANEELRAI; UniProt Q13936 1615-1636, looked up, fragment)", "values": [{"measurement": "interaction of the kinase with the 1581-1690 fusion protein in presence of peptide", "setting": "[2]", "result": "not inhibited"}]}
{"compound": "PP1: Hisx6-tagged protein phosphatase 1 catalytic subunit, purified recombinant", "values": [{"measurement": "remaining autonomous activity of α1C-bound CaMKII, % of that without PP1 treatment", "setting": "[4]; PP1 for 30 min, peptide AC-2 as substrate", "result": "1.2±0.6", "unit": "%"}, {"measurement": "time to complete dephosphorylation (loss of autonomous activity) of soluble kinase", "setting": "[4]; soluble CaMKII in solution", "result": "≤ 30", "unit": "min"}]}
